# Results from patent US20150164916A1, “ROFLUMILAST COMPOSITIONS FOR THE TREATMENT OF COPD” (Forest Laboratories Holdings Ltd., priority 2012, published 2015).
# Legend:
# Type in all cases: cell-based, human
# IL-1β release = test: LPS-induced IL-1β release in isolated peripheral blood neutrophils (LUMINEX); conditions: LPS (1 μg/ml), 6 h
# Procedure: (§1) Neutrophils and monocytes were isolated from peripheral venous blood by standard laboratory procedures. In brief, peripheral venous blood was mixed with dextran 500 at 3% (in 0.9% saline) in a proportion of 2:1. This mixture was incubated at room temperature for 30 min until erythrocytes were sedimented. The upper phase was carefully collected and added on Ficoll-Paque Histopaque 1077 (Amershan Pharmacia Biotech, Barcelona, Spain) density gradient in a proportion of 3:1. The two phases generated were centrifuged at 150 g, 4° C. for 30 min. Thus, the interface was collected to isolate monocytes, and the pellet obtained (which is consisted a mixture of neutrophils and low proportion of residual erythrocytes and traces of eosinophils and basophils) was resuspended in an erythrocyte lysis buffer (Biolegend, UK) for 5 min in ice. Cell suspension was washed two times with phosphate buffer (PBS).
# (§2) Peripheral neutrophil cell suspension was adjusted to 500×10^3 cells per well in 24-well plates and incubated in RPMI culture medium for 1 h into the incubator at 37° C., 5% CO2. […] Both the stimulus and drug were remained together for 6 h. Supernatants were collected and centrifuged at 120 g for 5 min, and the free-cell supernatant was used to measure IL-8, MMP-9, IL-1β, GM-CSF and CCL-5.
# (§3) IL-8 was determined by using commercially available enzyme-linked immunosorbent assay kit for IL-8 (R&D Systems, UK) according to the manufacturer's protocol. MMP-9, IL-1β, GM-CSF and CCL-5 were measured by LUMINEX technology according to the manufacturer's protocol.
# (§4) Data were presented as mean±SEM. IC50 values were calculated for each drug and their combinations. Statistical analysis of results was carried out by analysis of variance (ANOVA) followed by Bonferroni test, by Student's t test, or by non-parametric tests as appropriate (GraphPad Software Inc, San Diego, Calif., USA). Significance was accepted when P<0.05. For clinical correlations of lung function and gene expression from neutrophils the non-parametric Spearman correlation analysis was carried out.
# MIF = test: Real time RT-PCR of MIF mRNA in CSE-stimulated neutrophils from COPD patients; conditions: RNO 1 nM and 1 μM, DEX 1 μM, RNO 1 nM plus DEX 1 μM, NAC 1 mM for 1 h, then CSE 5% 6 h
# Procedure: (§5) Neutrophils and monocytes were isolated from peripheral venous blood by standard laboratory procedures. In brief, peripheral venous blood was mixed with dextran 500 at 3% (in 0.9% saline) in a proportion of 2:1. This mixture was incubated at room temperature for 30 min until erythrocytes were sedimented. The upper phase was carefully collected and added on Ficoll-Paque Histopaque 1077 (Amershan Pharmacia Biotech, Barcelona, Spain) density gradient in a proportion of 3:1. The two phases generated were centrifuged at 150 g, 4° C. for 30 min. […]
# (§6) CSE was prepared as previously outlined (Milara et al.; Ortiz et al.). […] The quality of the prepared CSE solution was assessed based on the absorbance at 320 nm, which is the specific absorption wavelength of peroxynitrite. Stock solutions with an absorbance value of 3.0±0.1 were used. […]
# (§7) Total RNA was obtained from isolated neutrophils under basal conditions or after different drug and stimulation periods defined above by using TriPure® Isolation Reagent (Roche, Indianapolis, USA). […] Relative quantification of these transcripts was determined with the 2^−ΔΔCt method using glyceraldehyde phosphate dehydrogenase (GAPDH) as endogenous control (Applied Biosystems; 4352339E) and normalized to control group as previously described (Milara et al., 2009).
# (§8) Then, mRNA was isolated and quantified for different genes.
# PI3Kδ = test: Real time RT-PCR of PI3Kδ expression in CSE-stimulated neutrophils from COPD patients; conditions: RNO 1 nM and 1 μM, DEX 1 μM, RNO 1 nM plus DEX 1 μM, NAC 1 mM, CSE 5%
# Procedure: as §5, §6, §7, §8
# CCL-5 release = test: LPS-induced CCL-5 release in isolated peripheral blood neutrophils (LUMINEX); conditions: LPS (1 μg/ml), 6 h
# Procedure: as §1, §2, §3, §4
# HDAC2 = test: Real time RT-PCR of HDAC2 expression in CSE-stimulated neutrophils from COPD patients; conditions: RNO 1 nM and 1 μM, DEX 1 μM, RNO 1 nM plus DEX 1 μM, NAC 1 mM, CSE 5%
# Procedure: as §5, §6, §7, §8
# MMP-9 release = test: LPS- or CSE-induced MMP-9 release in isolated peripheral blood neutrophils (LUMINEX); conditions: 6 h
# Procedure: as §1
# (§9) CSE was prepared as previously outlined (Milara et al.; Ortiz et al.). Briefly, the smoke of a research cigarette (2R4F; Tobacco Health Research, University of Kentucky, KY, USA) was generated by a respiratory pump (Apparatus Rodent Respirator 680; Harvard, Germany) through a puffing mechanism related to the human smoking pattern (3 puff/min; 1 puff 35 ml; each puff of 2 s duration with 0.5 cm above the filter) and was bubbled into a flask containing 25 ml of pre-warmed (37° C.) RPMI 1640 culture medium supplemented as describe above. The CSE solution was sterilized by filtration through a 0.22-μm cellulose acetate sterilizing system (Corning, N.Y.). The resultant CSE solution was considered to be 100% CSE and was used for experiments within 30 min of preparation. CSE 10% corresponds approximately to the exposure associated with smoking two packs per day (Su et al., 1998). The quality of the prepared CSE solution was assessed based on the absorbance at 320 nm, which is the specific absorption wavelength of peroxynitrite. Stock solutions with an absorbance value of 3.0±0.1 were used. To test for cytotoxicity from CSE, isolated neutrophils and monocytes were treated with CSE concentrations of up to 5% for 24.
# as §2, §3, §4
# IL-8 release = test: LPS- or CSE-induced IL-8 release in isolated peripheral blood neutrophils (ELISA); conditions: 6 h
# Procedure: as §1, §9, §2, §3, §4
# [1] = CSE 5%, neutrophils from COPD patients
# [2] = CSE 5%, neutrophils from HEALTHY
# [3] = LPS (1 μg/ml), neutrophils from COPD patients
# [4] = LPS (1 μg/ml), neutrophils from HEALTHY
smiles,measurement,setting,value
"O=C(Nc1c(Cl)c[n+]([O-])cc1Cl)c1ccc(OC(F)F)c(OCC2CC2)c1 [RNO, roflumilast N-oxide]","-log IC50, inhibition of IL-1β release",IL-1β release; neutrophils from COPD patients,7.82 ± 0.21
same,Maximal % Inhibition of IL-1β release,IL-1β release; neutrophils from COPD patients,66.69 ± 6.86%
same,"-log IC50, inhibition of IL-1β release",IL-1β release; neutrophils from HEALTHY,7.73 ± 0.22
same,Maximal % Inhibition of IL-1β release,IL-1β release; neutrophils from HEALTHY,67.08 ± 6.63%
same,effect on CSE-induced increase of MIF mRNA expression,MIF,reversed the effect of CSE
same,effect on CSE-induced PI3Kδ upregulation,PI3Kδ,inhibited
same,"-log IC50, inhibition of CCL-5 release",CCL-5 release; neutrophils from COPD patients,8.77 ± 0.35
same,Maximal % Inhibition of CCL-5 release,CCL-5 release; neutrophils from COPD patients,83.01 ± 6.74%
same,"-log IC50, inhibition of CCL-5 release",CCL-5 release; neutrophils from HEALTHY,8.62 ± 0.14
same,Maximal % Inhibition of CCL-5 release,CCL-5 release; neutrophils from HEALTHY,79.34 ± 3.63%
same,effect on CSE-induced HDAC2 downregulation,HDAC2,inhibited
same,"-log IC50, inhibition of MMP-9 release",MMP-9 release; [1],8.76 ± 0.11
same,Maximal % Inhibition of MMP-9 release,MMP-9 release; [1],62.58 ± 2.28%
same,"-log IC50, inhibition of MMP-9 release",MMP-9 release; [2],8.87 ± 5.6
same,Maximal % Inhibition of MMP-9 release,MMP-9 release; [2],64.8 ± 5.64%
same,"-log IC50, inhibition of MMP-9 release",MMP-9 release; [3],7.64 ± 0.23
same,Maximal % Inhibition of MMP-9 release,MMP-9 release; [3],94.61 ± 11.82%
same,"-log IC50, inhibition of MMP-9 release",MMP-9 release; [4],7.66 ± 0.22
same,Maximal % Inhibition of MMP-9 release,MMP-9 release; [4],98.9 ± 12.6%
same,"-log IC50, inhibition of IL-8 release",IL-8 release; [1],7.92 ± 0.1
same,Maximal % Inhibition of IL-8 release,IL-8 release; [1],88.9 ± 5.62%
same,"-log IC50, inhibition of IL-8 release",IL-8 release; [2],7.95 ± 0.12
same,Maximal % Inhibition of IL-8 release,IL-8 release; [2],90.4 ± 5.4%
same,"-log IC50, inhibition of IL-8 release",IL-8 release; [3],7.44 ± 0.24
same,Maximal % Inhibition of IL-8 release,IL-8 release; [3],48.70 ± 5.18%
same,"-log IC50, inhibition of IL-8 release",IL-8 release; [4],7.46 ± 0.26
same,Maximal % Inhibition of IL-8 release,IL-8 release; [4],40.50 ± 4.55%
